According to PubChem BioAssay (NCI):
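Following 48 hours of exposure in 96-well plates, responses at five concentrations were used to interpolate endpoints linearly. Here, GI50 denotes the concentration required for 50% inhibition of growth. Definition used: TGI = concentration required for complete inhibition of growth.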

Experiments:
Test in all cases: NCI-60 cell line screen, 48 h
786-0 renal = test system: 786-0 renal
A498 renal = test system: A498 renal
A549 NSCLC = test system: A549 NSCLC
ACHN renal = test system: ACHN renal
BT-549 breast = test system: BT-549 breast
CAKI-1 renal = test system: CAKI-1 renal
CCRF-CEM leukemia = test system: CCRF-CEM leukemia
COLO 205 colon = test system: COLO 205 colon
DU-145 prostate = test system: DU-145 prostate
EKVX NSCLC = test system: EKVX NSCLC
HCC-2998 colon = test system: HCC-2998 colon
HCT-116 colon = test system: HCT-116 colon
HCT-15 colon = test system: HCT-15 colon
HOP-62 NSCLC = test system: HOP-62 NSCLC
HOP-92 NSCLC = test system: HOP-92 NSCLC
HS 578T breast = test system: HS 578T breast
HT29 colon = test system: HT29 colon
IGROV1 ovarian = test system: IGROV1 ovarian
K-562 leukemia = test system: K-562 leukemia
KM12 colon = test system: KM12 colon
LOX IMVI melanoma = test system: LOX IMVI melanoma
M14 melanoma = test system: M14 melanoma
MALME-3M melanoma = test system: MALME-3M melanoma
MCF7 breast = test system: MCF7 breast
MDA-MB-231 breast = test system: MDA-MB-231 breast
MDA-MB-435 = test system: MDA-MB-435
MOLT-4 leukemia = test system: MOLT-4 leukemia
NCI-H226 lung = test system: NCI-H226 lung
NCI-H23 lung = test system: NCI-H23 lung
NCI-H460 lung = test system: NCI-H460 lung
NCI-H522 lung = test system: NCI-H522 lung
NCI/ADR-RES ovarian = test system: NCI/ADR-RES ovarian
OVCAR-3 ovarian = test system: OVCAR-3 ovarian
OVCAR-4 ovarian = test system: OVCAR-4 ovarian
OVCAR-5 ovarian = test system: OVCAR-5 ovarian
OVCAR-8 ovarian = test system: OVCAR-8 ovarian
PC-3 prostate = test system: PC-3 prostate
RXF 393 renal = test system: RXF 393 renal
SF-268 CNS = test system: SF-268 CNS
SF-295 CNS = test system: SF-295 CNS
SF-539 CNS = test system: SF-539 CNS
SK-MEL-2 melanoma = test system: SK-MEL-2 melanoma
SK-MEL-28 melanoma = test system: SK-MEL-28 melanoma
SK-MEL-5 melanoma = test system: SK-MEL-5 melanoma
SK-OV-3 ovarian = test system: SK-OV-3 ovarian
SN12C renal = test system: SN12C renal
SNB-19 CNS = test system: SNB-19 CNS
SNB-75 CNS = test system: SNB-75 CNS
SR leukemia = test system: SR leukemia
SW-620 colon = test system: SW-620 colon
T-47D breast = test system: T-47D breast
TK-10 renal = test system: TK-10 renal
U251 CNS = test system: U251 CNS
UACC-257 melanoma = test system: UACC-257 melanoma
UACC-62 melanoma = test system: UACC-62 melanoma
UO-31 renal = test system: UO-31 renal

C=CCc1c(O)c(C(=O)/C=C/c2ccc(Cl)cc2)c(OC)c2ccoc12
GI50 (786-0 renal): 4.83 µM
TGI (786-0 renal): 18.6 µM
GI50 (A498 renal): 2.77 µM
TGI (A498 renal): 13 µM
GI50 (A549 NSCLC): 4.7 µM
TGI (A549 NSCLC): 18.2 µM
GI50 (ACHN renal): 2.31 µM
TGI (ACHN renal): 6.17 µM
GI50 (BT-549 breast): 3 µM
TGI (BT-549 breast): 11 µM
GI50 (CAKI-1 renal): 2.61 µM
TGI (CAKI-1 renal): 11.6 µM
GI50 (CCRF-CEM leukemia): 3.33 µM
TGI (CCRF-CEM leukemia): > 100 µM
GI50 (COLO 205 colon): 4.44 µM
TGI (COLO 205 colon): 15.5 µM
GI50 (DU-145 prostate): 3.85 µM
TGI (DU-145 prostate): 18.1 µM
GI50 (EKVX NSCLC): 7.23 µM
TGI (EKVX NSCLC): 21.5 µM
GI50 (HCC-2998 colon): 1.79 µM
TGI (HCC-2998 colon): 3.26 µM
GI50 (HCT-116 colon): 2.74 µM
TGI (HCT-116 colon): 9 µM
GI50 (HCT-15 colon): 3.4 µM
TGI (HCT-15 colon): 12.9 µM
GI50 (HOP-62 NSCLC): 2.31 µM
TGI (HOP-62 NSCLC): 5.76 µM
GI50 (HOP-92 NSCLC): 1.69 µM
TGI (HOP-92 NSCLC): 5.94 µM
GI50 (HS 578T breast): 4.02 µM
TGI (HS 578T breast): 42.4 µM
GI50 (HT29 colon): 1.89 µM
TGI (HT29 colon): 3.98 µM
GI50 (IGROV1 ovarian): 3.46 µM
TGI (IGROV1 ovarian): 14.9 µM
GI50 (K-562 leukemia): 3.25 µM
TGI (K-562 leukemia): > 100 µM
GI50 (KM12 colon): 3.72 µM
TGI (KM12 colon): 13 µM
GI50 (LOX IMVI melanoma): 1.63 µM
TGI (LOX IMVI melanoma): 3.08 µM
GI50 (M14 melanoma): 5.08 µM
TGI (M14 melanoma): 29.2 µM
GI50 (MALME-3M melanoma): 2.74 µM
TGI (MALME-3M melanoma): 8.51 µM
GI50 (MCF7 breast): 2.51 µM
TGI (MCF7 breast): 11.4 µM
GI50 (MDA-MB-231 breast): 4.3 µM
TGI (MDA-MB-231 breast): 16.8 µM
GI50 (MDA-MB-435): 2.06 µM
TGI (MDA-MB-435): 4.53 µM
GI50 (MOLT-4 leukemia): 2.61 µM
TGI (MOLT-4 leukemia): > 100 µM
GI50 (NCI-H226 lung): 1.52 µM
TGI (NCI-H226 lung): 2.97 µM
GI50 (NCI-H23 lung): 2.78 µM
TGI (NCI-H23 lung): 11.6 µM
GI50 (NCI-H460 lung): 3.2 µM
TGI (NCI-H460 lung): 12.1 µM
GI50 (NCI-H522 lung): 1.88 µM
TGI (NCI-H522 lung): 5.71 µM
GI50 (NCI/ADR-RES ovarian): 2.23 µM
TGI (NCI/ADR-RES ovarian): 5.86 µM
GI50 (OVCAR-3 ovarian): 1.97 µM
TGI (OVCAR-3 ovarian): 4.41 µM
GI50 (OVCAR-4 ovarian): 2.77 µM
TGI (OVCAR-4 ovarian): 13.1 µM
GI50 (OVCAR-5 ovarian): 2.8 µM
TGI (OVCAR-5 ovarian): 9.71 µM
GI50 (OVCAR-8 ovarian): 3.04 µM
TGI (OVCAR-8 ovarian): 12 µM
GI50 (PC-3 prostate): 3.81 µM
TGI (PC-3 prostate): 15.6 µM
GI50 (RXF 393 renal): 1.72 µM
TGI (RXF 393 renal): 3.6 µM
GI50 (SF-268 CNS): 3.25 µM
TGI (SF-268 CNS): 12 µM
GI50 (SF-295 CNS): 2.77 µM
TGI (SF-295 CNS): 9.56 µM
GI50 (SF-539 CNS): 1.79 µM
TGI (SF-539 CNS): 3.85 µM
GI50 (SK-MEL-2 melanoma): 3.97 µM
TGI (SK-MEL-2 melanoma): 14.7 µM
GI50 (SK-MEL-28 melanoma): 2.32 µM
TGI (SK-MEL-28 melanoma): 5.53 µM
GI50 (SK-MEL-5 melanoma): 2.07 µM
TGI (SK-MEL-5 melanoma): 5.18 µM
GI50 (SK-OV-3 ovarian): 5.96 µM
TGI (SK-OV-3 ovarian): 19.2 µM
GI50 (SN12C renal): 4.96 µM
TGI (SN12C renal): 16.9 µM
GI50 (SNB-19 CNS): 2.85 µM
TGI (SNB-19 CNS): 8.15 µM
GI50 (SNB-75 CNS): 2.01 µM
TGI (SNB-75 CNS): 9.11 µM
GI50 (SR leukemia): 2.77 µM
TGI (SR leukemia): 9.11 µM
GI50 (SW-620 colon): 2.56 µM
TGI (SW-620 colon): 6.86 µM
GI50 (T-47D breast): 3.29 µM
TGI (T-47D breast): 19 µM
GI50 (TK-10 renal): 3.62 µM
TGI (TK-10 renal): 12.9 µM
GI50 (U251 CNS): 2.3 µM
TGI (U251 CNS): 5.87 µM
GI50 (UACC-257 melanoma): 2.39 µM
TGI (UACC-257 melanoma): 6.62 µM
GI50 (UACC-62 melanoma): 2.88 µM
TGI (UACC-62 melanoma): 10.1 µM
GI50 (UO-31 renal): 2.88 µM
TGI (UO-31 renal): 13.3 µM
